Counter-ions that a name gives are not always drawn. Like-named read-outs stand apart in the source and are kept apart here. Marks after values point to notes of the source that are not given here.
Columns and labels:
[1] = cited from earlier work
[2] = system: CYP3A4/5; conditions: microsomes
[3] = target: T1, CYP1A2 (Homo sapiens, UniProt P05177); conditions: microsomes
T1 sequence (P05177 1-516): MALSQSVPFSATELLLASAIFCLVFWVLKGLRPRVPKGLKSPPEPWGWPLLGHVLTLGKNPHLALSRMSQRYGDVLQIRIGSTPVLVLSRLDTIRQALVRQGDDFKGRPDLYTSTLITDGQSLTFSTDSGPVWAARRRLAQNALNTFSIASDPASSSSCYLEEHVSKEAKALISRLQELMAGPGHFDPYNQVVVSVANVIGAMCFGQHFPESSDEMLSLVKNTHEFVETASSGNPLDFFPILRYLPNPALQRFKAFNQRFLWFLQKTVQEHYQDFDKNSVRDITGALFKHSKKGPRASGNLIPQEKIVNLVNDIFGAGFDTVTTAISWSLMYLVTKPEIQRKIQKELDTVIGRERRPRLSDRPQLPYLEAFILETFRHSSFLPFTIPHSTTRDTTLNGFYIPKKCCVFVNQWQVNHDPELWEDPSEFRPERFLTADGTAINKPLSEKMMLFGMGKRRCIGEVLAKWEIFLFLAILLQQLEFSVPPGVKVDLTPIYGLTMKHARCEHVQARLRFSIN

[4] = system: human lymphocyte; test: Human lymphocyte chromosomal aberration test; assay type: cell-based; conditions: in vitro
Text: (§1) For a 50 kg person of average height this dose represents 2.5 times the recommended human dose on a body surface area basis. Balsalazide disodium was not genotoxic in the following in vitro or in vivo tests: Ames test, human lymphocyte chromosomal aberration test, and mouse lymphoma cell (L5178Y/TK+/−) forward mutation test, or mouse micronucleus test. However, it was genotoxic in the in vitro Chinese hamster lung cell (CH V79/HGPRT) forward mutation test.
(§2) The compound 4-aminobenzoyl-β-alanine, a metabolite of balsalazide disodium, was not genotoxic in the Ames test and the mouse lymphoma cell (L5178Y/TK+/−) forward mutation test but was positive in the human lymphocyte chromosomal aberration test. N-acetyl-4-aminobenzoyl-β-alanine, a conjugated metabolite of balsalazide disodium, was not genotoxic in Ames test, the mouse lymphoma cell (L5178Y/TK+/−) forward mutation test, or the human lymphocyte chromosomal aberration test.

[5] = target: T2, CYP2C9 (Homo sapiens, UniProt P11712); conditions: microsomes
T2 sequence (P11712 whole entry): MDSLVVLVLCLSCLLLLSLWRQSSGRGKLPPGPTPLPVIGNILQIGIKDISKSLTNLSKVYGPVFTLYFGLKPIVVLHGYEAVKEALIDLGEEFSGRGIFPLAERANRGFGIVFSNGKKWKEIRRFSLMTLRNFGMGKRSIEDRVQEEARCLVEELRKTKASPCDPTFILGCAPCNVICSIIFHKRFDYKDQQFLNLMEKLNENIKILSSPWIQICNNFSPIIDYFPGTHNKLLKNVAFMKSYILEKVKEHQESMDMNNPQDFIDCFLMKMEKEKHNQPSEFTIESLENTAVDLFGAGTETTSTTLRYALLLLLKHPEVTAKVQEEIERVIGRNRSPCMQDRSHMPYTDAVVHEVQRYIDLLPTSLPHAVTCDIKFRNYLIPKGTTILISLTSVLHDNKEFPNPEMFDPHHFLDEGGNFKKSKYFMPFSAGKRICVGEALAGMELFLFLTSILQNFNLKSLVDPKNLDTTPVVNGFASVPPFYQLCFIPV

[6] = target: T3, CYP2C19 (Homo sapiens, UniProt P33261); conditions: microsomes
T3 sequence (P33261 whole entry): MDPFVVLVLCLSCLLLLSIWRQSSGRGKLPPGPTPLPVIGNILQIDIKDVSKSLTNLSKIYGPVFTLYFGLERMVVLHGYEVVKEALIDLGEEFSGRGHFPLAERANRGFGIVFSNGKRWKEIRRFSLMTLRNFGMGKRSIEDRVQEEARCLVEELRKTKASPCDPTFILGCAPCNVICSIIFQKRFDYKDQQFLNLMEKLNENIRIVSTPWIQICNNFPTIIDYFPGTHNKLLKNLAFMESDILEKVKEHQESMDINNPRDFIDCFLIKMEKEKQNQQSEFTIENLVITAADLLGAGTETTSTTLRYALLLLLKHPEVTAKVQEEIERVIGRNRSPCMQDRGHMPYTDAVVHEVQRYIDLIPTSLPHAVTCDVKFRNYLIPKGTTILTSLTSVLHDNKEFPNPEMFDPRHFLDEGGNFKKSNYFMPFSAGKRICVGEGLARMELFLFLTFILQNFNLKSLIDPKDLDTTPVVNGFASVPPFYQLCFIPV

[7] = target: T4, CYP2D6 (Homo sapiens, UniProt P10635); conditions: microsomes
T4 sequence (P10635 whole entry): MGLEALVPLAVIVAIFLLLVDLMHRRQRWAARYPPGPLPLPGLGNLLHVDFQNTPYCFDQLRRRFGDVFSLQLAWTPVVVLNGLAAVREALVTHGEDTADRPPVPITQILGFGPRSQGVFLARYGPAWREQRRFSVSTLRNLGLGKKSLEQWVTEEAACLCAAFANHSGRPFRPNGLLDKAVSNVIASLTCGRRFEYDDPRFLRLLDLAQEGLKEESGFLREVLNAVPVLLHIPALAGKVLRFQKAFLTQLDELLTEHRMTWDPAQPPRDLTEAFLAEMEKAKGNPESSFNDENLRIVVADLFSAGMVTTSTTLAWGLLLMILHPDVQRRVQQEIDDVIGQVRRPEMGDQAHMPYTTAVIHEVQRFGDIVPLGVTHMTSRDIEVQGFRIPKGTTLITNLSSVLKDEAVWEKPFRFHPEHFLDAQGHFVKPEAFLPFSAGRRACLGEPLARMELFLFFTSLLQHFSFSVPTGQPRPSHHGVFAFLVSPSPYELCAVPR

[8] = Ames test; assay type: cell-based; conditions: in vitro
Text: as §1, §2

[9] = system: mouse lymphoma cell (L5178Y/TK+/−); test: Mouse lymphoma cell forward mutation test; assay type: cell-based; conditions: in vitro
Text: as §1, §2

[10] = system: human plasma proteins; test: Plasma protein binding
[11] = clinical
Text: Before further description and in order that the invention may be more readily understood, certain terms are first defined and collected here for convenience. Common pharmacologic term used herein refer are as follows: Tmax (time to maximum concentration); Cmax (observed maximum concentration); kel (slope of terminal linear portion of concentration/time curve); T1/2 (half-life of balsalazide calculated as: 0.693/Kel); AUC(last) (area under the curve to last quantifiable concentration as measured by the trapezoidal rule); and AUC(inf) (the AUC value extrapolated to infinity calculated as: AUC(inf)=AUC(last)+C(t)last/Kel where C(t) last is the last measurable concentration).

[12] = Food effect on pharmacokinetics, single 3.3 g dose of GIAZO; conditions: single dose 3.3 g GIAZO; for Change (reduction) of AUC0-∞ under fed conditions / Reduction of mean Cmax under fed conditions: high-fat meal vs fasted; for Tmax: human, plasma, po, 3.3 g, Median Tmax
[13] = system: human plasma proteins
[14] = clinical; conditions: human, in vivo, po, 3.3 g, Median Tmax
[15] = human, in vivo, po, 3.3 g
[16] = system: Chinese hamster lung cell (CH V79/HGPRT); assay type: cell-based
Text: as §1

[17] = Mouse micronucleus test; conditions: in vivo
Text: as §1

[18] = Reproduction studies in rabbits; assay type: in vivo, rabbit; conditions: oral doses up to 2 g/kg/day
Text: (§3) There are, however, no adequate and well-controlled studies in pregnant women. Because animal reproduction studies are not always predictive of human response, this drug should be used during pregnancy only if clearly needed.

[19] = Reproduction / fertility studies in rats; assay type: in vivo, rat; conditions: oral doses up to 2 g/kg/day
Text: as §3, §2

[20] = 24-month rat carcinogenicity study; assay type: in vivo, rat (Sprague Dawley); conditions: 24 months, oral (dietary), doses up to 2 g/kg/day
Text: as §1

[21] = Solubility of balsalazide disodium; assay type: physicochemical
Text: It is a stable, odorless, orange to yellow, microcrystalline powder. […] Balsalazide disodium has the chemical name (E)-5-[[-4-[[(2-carboxyethyl) amino]carbonyl]phenyl]azo]-2-hydroxybenzoic acid, disodium salt, dihydrate (Molecular Weight: 437.32; Molecular Formula: C17H13N3O6Na2.2H2O).
Each GIAZO tablet contains 1.1 g of balsalazide disodium, film-coated for oral delivery. Balsalazide disodium is insoluble in acid, but soluble at a pH of at least 4.5. […] The sodium content of each tablet is approximately 126 mg.
Mesalamine is 5-aminosaliacylic acid and appears to act topically.

[22] = target: T2, CYP2C9; test: CYP inhibition in human liver microsomes
[23] = target: T4, CYP2D6; test: CYP inhibition in human liver microsomes
[24] = system: CYP3A4/5; test: CYP inhibition in human liver microsomes
[25] = target: T3, CYP2C19; test: CYP inhibition in human liver microsomes
[26] = target: T1, CYP1A2; test: CYP inhibition in human liver microsomes
[27] = human, in vivo, Terminal half-life
[28] = repeated dose (Q12) 3.3 g as GIAZO, N = 18
[29] = single dose 3.3 g as GIAZO, N = 18

Nc1ccc(C(=O)NCCC(=O)O)cc1 [4-ABA, 4-aminobenzoyl-β-alanine]
Absorption of the released carrier component ([1]; largely eliminated in the feces): poorly absorbed
Inhibition of CYP3A4/5 [2]: not shown to inhibit
Inhibition of CYP1A2 [3]: not shown to inhibit
Genotoxicity, human lymphocyte chromosomal aberration test [4]: positive
Inhibition of CYP2C9 [5]: not shown to inhibit
Inhibition of CYP2C19 [6]: not shown to inhibit
Inhibition of CYP2D6 [7]: not shown to inhibit
Genotoxicity, Ames test [8]: not genotoxic
Genotoxicity, mouse lymphoma cell (L5178Y/TK+/−) forward mutation test [9]: not genotoxic

O=C(O)CCNC(=O)c1ccc(/N=N/c2ccc(O)c(C(=O)O)c2)cc1 [balsalazide]
Inhibition of CYP3A4/5 [2]: not shown to inhibit
Inhibition of CYP1A2 [3]: not shown to inhibit
Inhibition of CYP2C9 [5]: not shown to inhibit
Binding to plasma proteins [10]: ≥ 99%
Inhibition of CYP2C19 [6]: not shown to inhibit
AUC(0-inf) ([11]; human, in vivo): 1400 ng·h/mL
T1/2, mean ([11]; human, in vivo): 1.9 h
Tmax ([11]; human, in vivo): 0.5 h
AUC ([11]; human, in vivo, AUCtau, mean): 1300 ng·h/mL
Cmax ([11]; human, in vivo, Cmax, mean): 300 ng/mL
half-life [11, 27]: 1.9 h
Inhibition of CYP2D6 [7]: not shown to inhibit
Change (reduction) of AUC0-∞ under fed conditions [12]: No significant changes
Reduction of mean Cmax under fed conditions [12]: 44%
Tmax ([12]; fasted): 0.5 h
Tmax ([12]; with a high fat meal): 2 h

Nc1ccc(O)c(C(=O)O)c1 [5-ASA, 5-aminosalicylic acid]
Binding to plasma proteins [13]: 43%
Inhibition of CYP1A2 [3]: not shown to inhibit
Inhibition of CYP2C9 [5]: not shown to inhibit
Inhibition of CYP2C19 [6]: not shown to inhibit
Tmax [14]: 12 h
AUC(0-inf) ([11]; human, in vivo): 8500 ng·h/mL
AUCtau, mean ([11]; human, in vivo): 2200 ng·h/mL
Cmax, mean ([11]; human, in vivo): 500 ng/mL
Tmax ([11]; human, in vivo): 12 h
half-life ([11]; human, in vivo, T1/2, mean): 9.5 h
half-life [11, 27]: 9.5 h
Inhibition of CYP2D6 [7]: not shown to inhibit
Median Tmax [15]: 24 h
Change (reduction) of AUC0-∞ under fed conditions [12]: 46%
Reduction of mean Cmax under fed conditions [12]: 65%

O=C(O)CCNC(=O)c1ccc(/N=N/c2ccc(O)c(C(=O)O)c2)cc1 [balsalazide disodium, (E)-5-[[-4-[[(2-carboxyethyl)amino]carbonyl]phenyl]azo]-2-hydroxybenzoic acid, disodium salt, dihydrate]
Genotoxicity, Chinese hamster lung cell (CH V79/HGPRT) forward mutation test [16]: genotoxic
Genotoxicity, human lymphocyte chromosomal aberration test [4]: not genotoxic
Genotoxicity, mouse micronucleus test [17]: not genotoxic
Impaired fertility or harm to the fetus [18]: no evidence of impaired fertility or harm to the fetus
Effect on fertility and reproductive performance [19]: no effect on fertility and reproductive performance
Impaired fertility or harm to the fetus [19]: no evidence of impaired fertility or harm to the fetus
Tumorigenicity [20]: not tumorigenic
Genotoxicity, Ames test [8]: not genotoxic
Solubility in acid ([21]; acid): insoluble
Solubility in all other organic solvents ([21]; all other organic solvents): practically insoluble
Solubility in methanol and ethanol ([21]; methanol and ethanol): sparingly soluble
pH at which soluble ([21]; pH): at least 4.5
Water solubility ([21]; water): highly water-soluble
Solubility in water and isotonic saline ([21]; water and isotonic saline): freely soluble
Genotoxicity, mouse lymphoma cell (L5178Y/TK+/−) forward mutation test [9]: not genotoxic

CC(=O)Nc1ccc(O)c(C(=O)O)c1 [N-Ac-5-ASA, N-acetyl-5-aminosalyicylic acid]
Inhibition of CYP2C9 [22]: not shown to inhibit
Inhibition of CYP2D6 [23]: not shown to inhibit
Percent of the oral dose measured in the blood / systemically absorbed ([1]; oral dose): ~12%
Binding to plasma proteins [10]: 78%
Inhibition of CYP3A4/5 [24]: not shown to inhibit
Inhibition of CYP2C19 [25]: not shown to inhibit
Terminal half-life [11]: 10.5 h
T1/2, mean ([11]; repeated dose (Q12) 3.3 g as GIAZO): 7.2 h
AUCtau, mean [11, 28]: 21000 ng·h/mL
Cmax, mean [11, 28]: 2200 ng/mL
Tmax, median [11, 28]: 10 h
Accumulation ratio based on AUC ([11]; repeated doses of 3.3 g GIAZO every 12 hours, steady-state vs single dose): 3.6
Median time of peak plasma concentration (Tmax) ([11]; single dose 3.3 g GIAZO, 18 healthy subjects): 12 h
AUC0-∞, mean [11, 29]: 33500 ng·h/mL
AUCtau, mean [11, 29]: 5900 ng·h/mL
Cmax, mean [11, 29]: 1200 ng/mL
Tmax, median [11, 29]: 12 h
T1/2, mean ([11]; single dose 3.3 g as GIAZO, N = 17 where marked b): 10.4^b hour
Mean % of dose excreted in urine over 12 hours ([11]; steady-state, 3.3 g GIAZO every 12 hours, healthy volunteers): 15.6%
Inhibition of CYP1A2 [26]: not shown to inhibit
Median Tmax ([12]; fasted): 12 h
Change (reduction) of AUC0-∞ under fed conditions [12]: 17%
Reduction of mean Cmax under fed conditions [12]: 48%
Median Tmax ([12]; with a high fat meal): 24 h

Reference: US8497256B2, “Formulations and uses of 2-hydroxy-5-phenylazobenzoic acid derivatives for the treatment of males” (Salix Pharmaceuticals, Ltd, priority 2010, dated 2013)
